According to US6706734B2, “Arylpiperidinol and arylpiperidine derivatives and pharmaceuticals containing the same” (Daiichi Suntory Pharma Co., Ltd., priority 1996, dated 2004):

Columns and labels:
[1] = system: Sodium channel; assay: Inhibitory effect of veratrizine-induced sodium channel activity (synaptosome membrane potential, Rhodamine 6G); format: biochemical, Wistar rats; conditions: compound 0.1 μM, rat brain synaptozomes, veratridine-induced depolarization
Protocol: Inhibitory Effect of Veratrizine-induced Sodium Channel Activity
The membrane potential of the synaptozomes prepared from the brain membrane of Wistar rats (male, 10 to 12 weeks old) was measured by the method of Aiuchi et al. (t. Aiuchi et al: Biochimi. Biophys. Acta. 771, 228 (1984)) using a membrane potential sensitive fluorescent dye Rhodamine 6G to evaluate the effects of suppression of the compound on the veratrizine-inducing depolarization response.

[2] = system: DBA/2N type mice; assay: Audiogenic seizure suppressing effect; format: in vivo; conditions: compound 10 mg/kg, i.p., audio stimulus after 20 minutes, suppression of average seizure score; for inhibition in vivo at 10 mg/kg: Mus musculus, ip, 20 min, read-out: Antiseizure effect (suppression rate %)
Protocol: Audiogenic Seizure Suppressing Effect
The audiogenic seizure suppressing effect of the compounds was evaluated by the method of Sarro et al. [G. B. De Sarro et al., Br. J. Pharmacol., 93, 247 (1988)]. That is, the compound dissolved in 10% 2-hydroxypropyl-β-cyclodextrin was administered intraperitoneally to DBA/2N type mice (male, 3 weeks old). After 20 minutes, a supersonic washer was used to apply audio stimulus of at least 90 dB for one minute. The wild running (WR), clonic seizures (clonus), tonic seizures (tonus), and respiratory arrest (RA) were observed.

[3] = system: T-type Ca^2+ channel; assay: T-type calcium channel inhibitory effect (whole-cell patch clamp, hippocampal CA1 pyramidal cells); conditions: read-out: T-type Ca^2+ channel inhibitory effect IC50; suppression of peak current after one minute of application; rat hippocampal CA1 pyramidal cells
Protocol: T-Type Calcium Channel Inhibitory Effect
The hippocampal CA1 pyramidal cells were isolated from Wistar rats (female, 1 week old) according to the method reported by Takahashi et al. [K. Takahashi et al.; J. Pharmacol. Exp. Ther., 256, 169 (1991)] and the T-type calcium current under conditions of a fixed membrane potential was measured using the whole-cell configration of the patch clamp technique. The effects of the compounds were evaluated from the rate of suppression of the peak current after one minute of application using the concentration clamp method.

SMILES	Anti-veratridine effect (inhibiting rate %) [1] [%]	inhibition in vivo at 10 mg/kg [2] [%]	further results
O=C(CN1CCC(O)(c2ccc(Cc3ccc(F)cc3)cc2)CC1)N[C@@H]1C[C@H]1c1ccccc1 (relative stereo) [Compound 54, N-(trans-2-phenyl-1-cyclopropyl)-4-[4-(4-fluorophenyl)methylphenyl]-4-hydroxy-1-piperidinacetamide]	20.4	58	
Fc1cc(C2CCN(C/C=C/c3ccccc3)CC2)ccc1-c1ccccc1 [Compound 18, (E)-4-(3-fluoro-4-phenyl)phenyl-1-(3-phenyl-2-propenyl)piperidine]	13.1	62	
O=C(CN1CCC(c2ccc(-c3ccccc3)c(F)c2)CC1)c1ccccc1 [Compound 19, 4-(3-fluoro-4-phenyl)phenyl-1-(2-phenyl-2-oxoethyl)piperidine]	12.9	52	
O=C(CN1CCC(O)(c2ccc(-c3ccccc3)c(F)c2)CC1)c1ccccc1 [Compound 20, 4-(3-fluoro-4-phenyl)phenyl-1-(2-phenyl-2-oxoethyl)-4-piperidinol]	20.2	91.3	IC50 [3]: 3 µM
COc1ccc(C(=O)CN2CCC(O)(c3ccc(-c4ccccc4)c(F)c3)CC2)cc1 [Compound 21, 4-(3-fluoro-4-phenyl)phenyl-1-[2-(4-methoxyphenyl)-2-oxoethyl]-4-piperidinol]	18.6	91.3	
C(=C\c1ccccc1)/CN1CCC(c2ccc(-c3ccccc3)cc2)CC1 [Compound 22, (E)-4-(4-phenyl)phenyl-1-(3-phenyl-2-propenyl)piperidine]		72	
O=C(CN1CCC(c2ccc(-c3ccccc3)cc2)CC1)c1ccccc1 [Compound 23, 4-(4-phenyl)phenyl-1-(2-phenyl-2-oxoethyl)piperidine]	11.3	84	
OC(COc1ccccc1)CN1CCC(O)(c2ccc(-c3ccccc3)c(F)c2)CC1 (stereo not shown) [Compound 24, 4-(3-fluoro-4-phenyl)phenyl-1-(2-hydroxy-3-phenoxy)propyl-4-piperidinol]	23.8	74	
Fc1cc(C2CCN(CC3CC3c3ccccc3)CC2)ccc1-c1ccccc1 (stereo not drawn) [Compound 25, 4-(3-fluoro-4-phenyl)phenyl-1-(trans-2-phenyl-1-cyclopropylmethyl)piperidine]	57	54	
OC1(c2ccc(-c3ccccc3)c(F)c2)CCN(CC2(c3ccccc3)CC2)CC1 [Compound 26, 4-(3-fluoro-4-phenyl)phenyl-1-(1-phenyl-1-cyclopropane)methyl-1-piperidinol]	30		
c1ccc(-c2ccc(C3CCN(CC4CC4c4ccccc4)CC3)cc2)cc1 (stereo not drawn) [Compound 27, 4-(4-phenyl)phenyl-1-(trans-2-phenyl-1-cyclopropylmethyl)piperidine]	41	52	
c1ccc(-c2ccc(C3CCN(CC4(c5ccccc5)CC4)CC3)cc2)cc1 [Compound 28, 4-(4-phenyl)phenyl-1-(1-phenyl-1-cyclopropane)methylpiperidine]	24	56	
OC(COc1ccccc1)CN1CCC(c2ccc(-c3ccccc3)cc2)CC1 (stereo not shown) [Compound 29, 4-(4-phenyl)phenyl-1-(2-hydroxy-3-phenoxy)propylpiperidine]	40	68	
O=C(CN1CCC(c2ccc(-c3ccccc3)c(F)c2)CC1)NC1CC1c1ccccc1 (stereo not drawn) [Compound 31, N-(trans-2-phenyl-1-cyclopropyl)-4-(3-fluoro-4-phenyl)phenyl-1-piperidinacetamide]	14		
OC1(c2ccc(-c3ccccc3)c(F)c2)CCN(CC2CC2c2ccccc2)CC1 (stereo not shown) [Compound 32]	27.3		
OC1(c2ccc(-c3ccccc3)cc2)CCN(C/C=C/c2ccccc2)CC1 [Compound 33, (E)-4-(4-phenyl)phenyl-1-(3-phenyl-2-propenyl)-4-piperidinol]	12.8		
O=C(CN1CCC(O)(c2ccc(Oc3ccccc3)cc2)CC1)c1ccccc1 [Compound 35, 4-(4-phenoxy)phenyl-1-(2-phenyl-2-oxoethyl)-4-piperidinol]	27.7	98	

SMILES	Anti-veratridine effect (inhibiting rate %) [1] [%]	inhibition in vivo at 10 mg/kg [2] [%]	further results
OC(COc1ccccc1)CN1CCC(O)(c2ccc(Oc3ccccc3)cc2)CC1 (stereo not shown) [Compound 36, 4-(4-phenoxy)phenyl-1-(2-hydroxy-3-phenoxy)propyl-4-piperidinol]		68	Anti-veratridine effect (inhibiting rate %) ([1]; 0.1 µM): 28.6%
OC1(c2ccc(Cc3ccc(F)cc3)cc2)CCN(C/C=C/c2ccccc2)CC1 [Compound 37, (E)-4-[4-(4-fluorophenyl)methylphenyl]-1-1-(3-phenyl-2-propenyl)-4-piperidinol]	39.7	88	
O=C(CN1CCC(O)(c2ccc(Cc3ccc(F)cc3)cc2)CC1)c1ccccc1 [Compound 38, 4-[4-(4-fluorophenyl)methylphenyl]-1-(2-phenyl-2-oxoethyl)-4-piperidinol]	18	82	
O=C(CN1CCC(O)(c2ccc(-c3ccccc3)cc2)CC1)c1ccccc1 [Compound 40, 1-(2-phenyl-2-oxoethyl)-4-(4-phenyl)phenyl-4-piperidinol]	23	84	
OC(COc1ccccc1)CN1CCC(O)(c2ccc(-c3ccccc3)cc2)CC1 (stereo not shown) [Compound 41, 1-(2-hydroxy-3-phenoxy)propyl-4-(4-phenyl)phenyl-4-piperidinol]	23.7	92	
OC(CN1CCC(O)(c2ccc(-c3ccccc3)cc2)CC1)c1ccccc1 (stereo not shown) [Compound 44, 1-(2-hydroxy-2-phenyl)ethyl-4-(4-phenyl)phenyl-4-piperidinol]		68	
O[C@H](COc1ccccc1)CN1CCC(O)(c2ccc(Oc3ccccc3)cc2)CC1 [Compound 45, (S)-4-(4-phenoxy)phenyl-1-(2-hydroxy-3-phenoxy)propyl-4-piperidinol]			Anti-veratridine effect (inhibiting rate %) ([1]; 0.1 µM): 19.8%; Antiseizure effect (suppression rate %) ([2]; 10 mg/kg): 82%
O[C@@H](COc1ccccc1)CN1CCC(O)(c2ccc(Oc3ccccc3)cc2)CC1 [Compound 46, (R)-4-(4-phenoxy)phenyl-1-(2-hydroxy-3-phenoxy)propyl-4-piperidinol]	19.8		Antiseizure effect (suppression rate %) [2]: 82%
O[C@H](COc1ccccc1)CN1CCC(O)(c2ccc(Cc3ccc(F)cc3)cc2)CC1 [Compound 47, (S)-4-[4-(4-fluorophenyl)methylphenyl]-1-(2-hydroxy-3-phenoxy)propyl-4-piperidinol]			Anti-veratridine effect (inhibiting rate %) ([1]; 0.1 µM): 39.5%; Antiseizure effect (suppression rate %) ([2]; 10 mg/kg): 78%
O[C@@H](COc1ccccc1)CN1CCC(O)(c2ccc(Cc3ccc(F)cc3)cc2)CC1 [Compound 48, (R)-4-[4-(4-fluorophenyl)methylphenyl]-1-(2-hydroxy-3-phenoxy)propyl-4-piperidinol]	22.7	82	
OC1(c2ccc(Oc3ccccc3)cc2)CCN(CC2(c3ccccc3)CC2)CC1 [Compound 49, 4-(4-phenoxy)phenyl-1-(1-phenyl-1-cyclopropane)methyl-4-piperidinol]	18.9	50	
OC1(c2ccc(Oc3ccccc3)cc2)CCN(CC2CC2c2ccccc2)CC1 (stereo not drawn) [Compound 50, 4-(4-phenoxy)phenyl-1-(trans-2-phenyl-1-cyclopropylmethyl)-4-piperidinol]	33.4	56	
O=C(CN1CCC(O)(c2ccc(Oc3ccccc3)cc2)CC1)NC1CC1c1ccccc1 (stereo not drawn) [Compound 53, N-(trans-2-phenyl-1-cyclopropyl)-4-hydroxy-4-(4-phenoxy)phenyl-1-piperidinacetamide]	32.3	74	
Cc1cccc(C)c1NC(=O)CN1CCC(O)(c2ccc(Oc3ccccc3)cc2)CC1 [Compound 55, N-(2,6-dimethylphenyl)-4-hydroxy-4-(4-phenoxy)phenyl-1-piperidinacetamide]	28.3	71.7	
O=C(CN1CCC(O)(c2ccc(Oc3ccccc3)cc2)CC1)NC1(c2ccccc2)CC1 [Compound 57, N-(1-phenyl)cyclopropyl-4-hydroxy-4-(4-phenoxy)phenyl-1-piperidinacetamide]	40.1	60	
O=C(CN1CCC(O)(c2ccc(Cc3ccc(F)cc3)cc2)CC1)NC1(c2ccccc2)CC1 [Compound 58, N-(1-phenyl)cyclopropyl-4-hydroxy-4-[4-(4-fluorophenyl)methylphenyl]-1-piperidinacetamide]	11.3	51.7	
